The values that follow are results of earlier work, collected in PubChem BioAssay AID1259409 (Chemical Carcinogenesis Research Information System (CCRIS), 2018).

In the series the test system is rodent chemically induced tumor inhibition, incidence and multiplicity. As to the kind of experiment: CCRIS tumor inhibitor studies. The following applies: Route [Inhibitor]: ORAL.

Consider `Cc1c(-c2cnccn2)ssc1=S`, for which the “tumour outcome (control, treated, inhibition, significance)” value is, setting by setting: (Carcinogen: NITROSOBIS(2-OXOPROPYL)AMINE [60599-38-4], Dose [Inhibitor]: 200 PPM IN DIET FOR 4 WK BEGINNING 1 WK PRIOR TO FIRST CARCINOGEN DOSE (STUDY DURATION: 52 WK), Species: HAMSTER, Strain/Sex: SYRIAN/FEMALE, Target Tissue: Type of Lesion: LIVER: HEPATOCELLULAR ADENOMA, Dose [Carcinogen]: 10 MG/KG BW 1X/WK FOR 3 WK (STUDY DURATION: 52 WK)) 16.7%, 20.7%, -24%, not significant; (Carcinogen: NITROSOBIS(2-OXOPROPYL)AMINE [60599-38-4], Dose [Inhibitor]: 200 PPM IN DIET FOR 4 WK BEGINNING 1 WK PRIOR TO FIRST CARCINOGEN DOSE (STUDY DURATION: 52 WK), Species: HAMSTER, Strain/Sex: SYRIAN/FEMALE, Target Tissue: Type of Lesion: LIVER: HEPATOCELLULAR CARCINOMA, Dose [Carcinogen]: 10 MG/KG BW 1X/WK FOR 3 WK (STUDY DURATION: 52 WK)) 6.7%, 6.9%, -3%, not significant; (Carcinogen: NITROSOBIS(2-OXOPROPYL)AMINE [60599-38-4], Dose [Inhibitor]: 200 PPM IN DIET FOR 4 WK BEGINNING 1 WK PRIOR TO FIRST CARCINOGEN DOSE (STUDY DURATION: 52 WK), Species: HAMSTER, Strain/Sex: SYRIAN/FEMALE, Target Tissue: Type of Lesion: LUNG: ADENOCARCINOMA, Dose [Carcinogen]: 10 MG/KG BW 1X/WK FOR 3 WK (STUDY DURATION: 52 WK)) 46.7%, 37.9%, 19%, not significant; (Carcinogen: NITROSOBIS(2-OXOPROPYL)AMINE [60599-38-4], Dose [Inhibitor]: 200 PPM IN DIET FOR 4 WK BEGINNING 1 WK PRIOR TO FIRST CARCINOGEN DOSE (STUDY DURATION: 52 WK), Species: HAMSTER, Strain/Sex: SYRIAN/FEMALE, Target Tissue: Type of Lesion: LUNG: ADENOMA, Dose [Carcinogen]: 10 MG/KG BW 1X/WK FOR 3 WK (STUDY DURATION: 52 WK)) 86.7%, 75.9%, 12%, not significant; (Carcinogen: NITROSOBIS(2-OXOPROPYL)AMINE [60599-38-4], Dose [Inhibitor]: 200 PPM IN DIET FOR 4 WK BEGINNING 1 WK PRIOR TO FIRST CARCINOGEN DOSE (STUDY DURATION: 52 WK), Species: HAMSTER, Strain/Sex: SYRIAN/FEMALE, Target Tissue: Type of Lesion: PANCREAS: ADENOCARCINOMA, Dose [Carcinogen]: 10 MG/KG BW 1X/WK FOR 3 WK (STUDY DURATION: 52 WK)) 13/30 (43.3%), 20/29 (68.9%), -59%, not significant; (Carcinogen: NITROSOBIS(2-OXOPROPYL)AMINE [60599-38-4], Dose [Inhibitor]: 400 PPM IN DIET FOR 4 WK BEGINNING 1 WK PRIOR TO FIRST CARCINOGEN DOSE (STUDY DURATION: 52 WK), Species: HAMSTER, Strain/Sex: SYRIAN/FEMALE, Target Tissue: Type of Lesion: GALL BLADDER: ADENOMA, Dose [Carcinogen]: 10 MG/KG BW 1X/WK FOR 3 WK (STUDY DURATION: 52 WK)) 13.3%, 21.1%, -59%, not significant. For the same compound, the “tumour outcome (control, treated, inhibition, significance)” value was 3.3%, 3.4%, -3%, not significant (Carcinogen: NITROSOBIS(2-OXOPROPYL)AMINE [60599-38-4], Dose [Inhibitor]: 400 PPM IN DIET FOR 4 WK BEGINNING 1 WK PRIOR TO FIRST CARCINOGEN DOSE (STUDY DURATION: 52 WK), Species: HAMSTER, Strain/Sex: SYRIAN/FEMALE, Target Tissue: Type of Lesion: KIDNEY: RENAL CELL ADENOMA, Dose [Carcinogen]: 10 MG/KG BW 1X/WK FOR 3 WK (STUDY DURATION: 52 WK)); 6.7%, 10.3%, -54%, not significant (Carcinogen: NITROSOBIS(2-OXOPROPYL)AMINE [60599-38-4], Dose [Inhibitor]: 400 PPM IN DIET FOR 4 WK BEGINNING 1 WK PRIOR TO FIRST CARCINOGEN DOSE (STUDY DURATION: 52 WK), Species: HAMSTER, Strain/Sex: SYRIAN/FEMALE, Target Tissue: Type of Lesion: KIDNEY: RENAL CELL CARCINOMA, Dose [Carcinogen]: 10 MG/KG BW 1X/WK FOR 3 WK (STUDY DURATION: 52 WK)); 6.7%, 0.0%, 100%, not significant (Carcinogen: NITROSOBIS(2-OXOPROPYL)AMINE [60599-38-4], Dose [Inhibitor]: 400 PPM IN DIET FOR 4 WK BEGINNING 1 WK PRIOR TO FIRST CARCINOGEN DOSE (STUDY DURATION: 52 WK), Species: HAMSTER, Strain/Sex: SYRIAN/FEMALE, Target Tissue: Type of Lesion: LIVER: CHOLANGIOCELLULAR ADENOMA, Dose [Carcinogen]: 10 MG/KG BW 1X/WK FOR 3 WK (STUDY DURATION: 52 WK)); 16.7%, 14.3%, 14%, not significant (Carcinogen: NITROSOBIS(2-OXOPROPYL)AMINE [60599-38-4], Dose [Inhibitor]: 400 PPM IN DIET FOR 4 WK BEGINNING 1 WK PRIOR TO FIRST CARCINOGEN DOSE (STUDY DURATION: 52 WK), Species: HAMSTER, Strain/Sex: SYRIAN/FEMALE, Target Tissue: Type of Lesion: LIVER: HEPATOCELLULAR ADENOMA, Dose [Carcinogen]: 10 MG/KG BW 1X/WK FOR 3 WK (STUDY DURATION: 52 WK)); 6.7%, 7.1%, -6%, not significant (Carcinogen: NITROSOBIS(2-OXOPROPYL)AMINE [60599-38-4], Dose [Inhibitor]: 400 PPM IN DIET FOR 4 WK BEGINNING 1 WK PRIOR TO FIRST CARCINOGEN DOSE (STUDY DURATION: 52 WK), Species: HAMSTER, Strain/Sex: SYRIAN/FEMALE, Target Tissue: Type of Lesion: LIVER: HEPATOCELLULAR CARCINOMA, Dose [Carcinogen]: 10 MG/KG BW 1X/WK FOR 3 WK (STUDY DURATION: 52 WK)); 46.7%, 17.2%, 63%, p<0.05 (Carcinogen: NITROSOBIS(2-OXOPROPYL)AMINE [60599-38-4], Dose [Inhibitor]: 400 PPM IN DIET FOR 4 WK BEGINNING 1 WK PRIOR TO FIRST CARCINOGEN DOSE (STUDY DURATION: 52 WK), Species: HAMSTER, Strain/Sex: SYRIAN/FEMALE, Target Tissue: Type of Lesion: LUNG: ADENOCARCINOMA, Dose [Carcinogen]: 10 MG/KG BW 1X/WK FOR 3 WK (STUDY DURATION: 52 WK)). The “tumour outcome (control, treated, inhibition, significance)” value is recorded as 86.7%,58.6%, 32%, p<0.05 (Carcinogen: NITROSOBIS(2-OXOPROPYL)AMINE [60599-38-4], Dose [Inhibitor]: 400 PPM IN DIET FOR 4 WK BEGINNING 1 WK PRIOR TO FIRST CARCINOGEN DOSE (STUDY DURATION: 52 WK), Species: HAMSTER, Strain/Sex: SYRIAN/FEMALE, Target Tissue: Type of Lesion: LUNG: ADENOMA, Dose [Carcinogen]: 10 MG/KG BW 1X/WK FOR 3 WK (STUDY DURATION: 52 WK)); 13/30 (43.3%), 19/28 (67.9%), -57%, not significant (Carcinogen: NITROSOBIS(2-OXOPROPYL)AMINE [60599-38-4], Dose [Inhibitor]: 400 PPM IN DIET FOR 4 WK BEGINNING 1 WK PRIOR TO FIRST CARCINOGEN DOSE (STUDY DURATION: 52 WK), Species: HAMSTER, Strain/Sex: SYRIAN/FEMALE, Target Tissue: Type of Lesion: PANCREAS: ADENOCARCINOMA, Dose [Carcinogen]: 10 MG/KG BW 1X/WK FOR 3 WK (STUDY DURATION: 52 WK)); 4/45 (9%), 0/46 (0%), 100%, p<0.05 (Dose [Inhibitor]: 0, 0.075% IN DIET FOR 4 WK BEGINNING 1 WK PRIOR TO CARCINOGEN TREATMENT (STUDY DURATION: 23 MO), Species: RAT, Strain/Sex: F344/MALE, Target Tissue: Type of Lesion: LIVER: ADENOMA, Dose [Carcinogen]: 25 UG IN 0.1 ML TRICAPRYLIN 5 D/WK FOR 2 WK, Promoter: NONE USED); 5/45 (11%), 0/46 (0%), 100%, p<0.05 (Dose [Inhibitor]: 0, 0.075% IN DIET FOR 4 WK BEGINNING 1 WK PRIOR TO CARCINOGEN TREATMENT (STUDY DURATION: 23 MO), Species: RAT, Strain/Sex: F344/MALE, Target Tissue: Type of Lesion: LIVER: CARCINOMA, Dose [Carcinogen]: 25 UG IN 0.1 ML TRICAPRYLIN 5 D/WK FOR 2 WK, Promoter: NONE USED). For the same compound, the outcome (Carcinogen: NITROSOBIS(2-OXOPROPYL)AMINE [60599-38-4], Dose [Inhibitor]: 400 PPM IN DIET FOR 4 WK BEGINNING 1 WK PRIOR TO FIRST CARCINOGEN DOSE (STUDY DURATION: 52 WK), Species: HAMSTER, Strain/Sex: SYRIAN/FEMALE, Target Tissue: Type of Lesion: LIVER: CHOLANGIOCELLULAR CARCINOMA, Dose [Carcinogen]: 10 MG/KG BW 1X/WK FOR 3 WK (STUDY DURATION: 52 WK)) is on record as 0.0%, 7.1%, -100%, not significant.
